In PubChem BioAssay AID1241 (SRMLSC, 2008):
The source made the active and inactive calls. The rule behind the calls is not given here.

experiment: compounds inducing NF-kB luciferase expression – cell-based, SH-SY5Y, dose response (AID 1241); settings: SH-SY5Y NF-kB promoter luciferase reporter, fold induction

SMILES | EC50
COc1ccc(CN=C2Nc3ccccc3CS2)cc1 | 13300 nM
CN(c1ccc(O)cc1)c1nc(-c2cccs2)cs1 | 3860 nM
O=C(NCCC1=CCCCC1)Nc1ccc2nsnc2c1 | 4770 nM
Cc1ccc(NC(=O)c2ccc3ccccc3n2)nc1 | 4110 nM
Cc1ccc(C)c(NC(=S)c2ccccn2)c1 | 6690 nM
CC(C)c1ccc(/C=N/NC(=O)c2cccc(Cl)c2)cc1 | 28800 nM
O=c1c(-c2ccc3c(c2)OCCO3)coc2cc(O)cc(O)c12 | 22700 nM
c1ccc(-c2noc(-c3cccc4ccccc34)n2)cc1 | 15600 nM
C(=N\Nc1ncnc2ccccc12)/c1ccccc1 | 4030 nM
O=C(CSC(=S)N1CCSCC1)c1ccccc1 | 3440 nM
COc1cc(/C=N/O)ccc1OCc1ccccc1Cl | 12100 nM
COc1ccccc1/C=C/C(=O)Nc1ccc2c(c1)CCC2 | 5640 nM
COc1ccc(-c2cc(=O)c3c(O)c(OC)c(O)cc3o2)cc1 | 2290 nM
Fc1ccccc1N1CCN(c2cnc3ccccc3n2)CC1 | 3330 nM
Cc1ccc(C(=O)Nc2ccc3c(c2)CCC3)o1 | 31000 nM (inactive)
CCc1ccc(-c2cc(N)n(-c3ccccc3)n2)cc1 | 16400 nM
COc1c(C)cccc1C(=O)Nc1ccc(N2CCOCC2)c(Cl)c1 | 13400 nM
Cc1ccc(NC(=O)c2ccn(C)n2)c(Br)c1 | 8250 nM
c1ccc(Cn2ccc(-c3cnc(-c4ccccc4)s3)n2)cc1 | 2240 nM
CCN(CC)c1ccc(NC(=O)c2ccccc2F)cc1 | 7390 nM
O=C(/C=C/Nc1ccc(F)c(F)c1)c1ccc(Br)cc1 | 3910 nM
Cc1cc(N/C=C/C(=O)c2cccs2)ccc1F | 2220 nM
CCc1ccc(NC(=O)c2cnn(-c3ccccc3)c2C)cc1 | 2560 nM
COc1ccc(/C=C/c2nc3ccccc3n2Cc2ccccc2OC)cc1 | 4980 nM
CCCCNc1ncnc2c1cnn2-c1ccc(Cl)cc1 | 7760 nM

SMILES | EC50
COc1ccc2c(c1OC)C(=O)OC2Nc1nc(-c2ccc(-c3ccccc3)cc2)cs1 (centres undefined) | 2980 nM
COc1ccc(/C=C/c2nc(-c3ccccc3O)n[nH]2)cc1 | 2920 nM
Cc1ccc(N=Nc2c(N)nn(-c3ccccc3)c2N)cc1 | 10000 nM
CC(C)(C)c1ccc(C(=O)Nc2cccc([N+](=O)[O-])c2)cc1 | 15800 nM
Oc1c(C2=NCCNC(C(F)(F)F)=C2)ccc2ccccc12 | 17700 nM
Cc1cc(C(=O)Nc2cccc(C(=O)O)c2)oc1C | 29800 nM
COc1ccc(-c2csc(-c3ccccc3)n2)c(OC)c1 | 6740 nM
CCOC(=O)N/C(N)=N/c1nc2ccccc2s1 | 9450 nM
C=CCNc1oc(/C=C/c2ccccc2)nc1C#N | 27000 nM
Cc1ccc(C(=O)Nc2ncc(Cc3ccc(F)cc3)s2)o1 | 6160 nM
Cc1ccccc1Nc1nnc(SCC2CCCCO2)s1 (centres undefined) | 5760 nM
Cc1ccc(Nc2nc(-c3ccc(O)c(O)c3)cs2)nc1 | 6730 nM
CC(C)c1ccc(Nc2nc(CC(=O)O)cs2)cc1 | 5810 nM
O=C(/C=C/c1ccccc1Cl)c1ccccc(=O)c1O | 8070 nM
O=C(Nc1ccccc1O)c1ccc(NS(=O)(=O)c2cccc3cccnc23)cc1 | 21900 nM
COc1ccc(C(=O)Nc2cc(OC)nc(OC)n2)cc1 | 12000 nM
COc1ccc2nc(SCc3ccccc3)nc(C)c2c1 | 6570 nM
Cc1ccc(/C=N/Nc2ccc(Cl)c(C(=O)O)c2)s1 | 12800 nM
Clc1ccc2nc(N3CCCCC3)[nH]c2c1 | 7790 nM
COc1cccc(CNc2ccc(Br)cn2)c1O | 3900 nM
Fc1cccc(C2NN=C(c3ccccc3)S2)c1 (centres undefined) | 9650 nM
CC1CC1C(=O)OCC(=O)Nc1ccc(N=Nc2ccccc2)cc1 (centres undefined) | 15400 nM
CSc1ccc(/C=N/Nc2cccc(C(=O)O)c2)cc1 | 3430 nM
Nc1ccc(O)cc1C(=O)OCC(=O)c1ccc(C2CCCCC2)cc1 | 3910 nM
COCCOCCn1c(/C=C/c2ccccc2)nc2ccccc21 | 5780 nM

SMILES | EC50
Cc1ccc(NC(=O)c2ccccc2)s1 | 6430 nM
O=S1(=O)N=C(Nc2nc3c(s2)CCCC3)c2ccccc21 | 21800 nM
CCc1ccc(C2=NN(S(C)(=O)=O)C(c3cccs3)C2)cc1 (centres undefined) | 2850 nM
c1ccc(CSCc2cn3ccsc3n2)cc1 | 12600 nM
O=C(Nc1ccc(OC(F)F)c(Cl)c1)c1ccccn1 | 6280 nM
C/C(=N\N1C(=O)c2ccccc2NC1c1ccco1)c1ccccc1O (centres undefined) | 2500 nM
Fc1ccccc1-c1nc(-c2ccccc2)no1 | 4000 nM
CC1CCN(C(=O)c2cc(-c3ccccc3O)on2)CC1 | 8790 nM
Cc1ccccc1-c1noc(-c2ccc(O)cc2)n1 | 6210 nM
CCOc1ccc2nc(C(=O)N3CCCC(C)C3)sc2c1 (centres undefined) | 3300 nM
FC(F)(F)c1cc(Cl)c2nc(-c3ccccc3)cn2c1 | 5670 nM
O=C(Nc1ccc(Cl)cc1Cl)C1=Cc2ccccc2OC1 | 8040 nM
N#C/C(=C\c1ccc(OCc2ccc(C(=O)O)cc2)cc1)C(=O)N1CCOCC1 | 12100 nM
CCOC(=O)c1ccc(Nc2ncccc2[N+](=O)[O-])cc1 | 2820 nM
CCC(=O)NC(c1ccccc1OC)c1ccc2cccnc2c1O (centres undefined) | 8390 nM
Cc1ccc(-c2cc(-c3cccc(F)c3)n[nH]2)c(O)c1 | 4400 nM
N#CC1=C2SC=C(c3ccc(Br)cc3)N2CCCC1=O | 19400 nM
O=C(Nc1ccc2c(c1)CCC2)c1cccs1 | 6510 nM
N/C(=N\OC(=O)c1cc(Br)ccc1Cl)c1ccccn1 | 2220 nM
CC(C)c1cc(C(=O)Nc2ccc3c(c2)OCO3)no1 | 3280 nM
Cc1cccc(Nc2nc3ccccc3s2)c1C | 4270 nM
Cc1c(C(=O)N2CCc3ccccc32)oc2ccccc12 | 3370 nM
CC(C)Oc1cc(O)c2c(=O)c(-c3ccc(O)cc3)coc2c1 | 4520 nM

More lines, now with the values ahead:

EC50 | SMILES
648 nM | CCCOc1ccc(C(=O)NCCc2ccccc2)cc1
718 nM | COc1ccccc1N1CCN(c2ccc(-c3ccccc3)nn2)CC1
824 nM | O=C1CCOc2cc(OCc3ccccc3)ccc21
769 nM | Cc1ccc(OCc2nc(-c3cccs3)no2)c([N+](=O)[O-])c1
158 nM | Cc1ccc(C(=O)Nc2ccc3c(c2)CCC3)cc1
272 nM | COc1ccc(/C=N/N=C(\N)c2nonc2N)cc1
1630 nM | Cc1cc(C(=O)Nc2nc3c(s2)CCCC3)cs1
1440 nM | O=C(Nc1ccc2c(c1)OCCO2)c1ccc2ccccc2n1
1420 nM | CCn1cnc2cc(NCc3nc4ccccc4n3C)ccc21
1510 nM | Cc1cc(O)ccc1Nc1nc(-c2cccs2)cs1
1020 nM | CN(c1ccc(O)cc1)c1nc(-c2ccccc2)cs1
1240 nM | O=C(Nc1ccccc1)c1cc2ccccc2o1
1690 nM | Cc1ccc2nc(-c3ccc(NC(=O)CNC4CC4)cc3)sc2c1
906 nM | CCOc1ccc(-c2nc(-c3cccnc3)no2)cc1
1010 nM | CCOc1ccc(/C=N/Nc2ccccn2)cc1
2020 nM | Nc1ccc(Nc2nc(-c3cc4ccccc4oc3=O)cs2)cc1
1290 nM | COc1cc(SC)ccc1C(=O)Nc1ccc2c(c1)OCO2
1920 nM | CCOC(=O)c1c(N)sc(C(=O)Nc2ccccc2F)c1C
1850 nM | O=C(Nc1ccc2nsnc2c1)c1ccc2c(c1)OCO2
632 nM | O=C(Nc1ccc2ccccc2c1)c1onc2c1CCCC2
1850 nM | Clc1cc(Cl)c(OCc2nc(-c3ccccn3)no2)cc1Cl

EC50 | SMILES
768 nM | Cn1cccc1C(=O)OCc1csc(-c2ccccc2)n1
1120 nM | CC(C)(C)c1ccc(C(=O)Nc2cnccn2)cc1
1720 nM | N#C/C(=N\Nc1ccc(Cl)cc1)C(=N)N1CCCCC1
1690 nM | CCc1sc(C(=O)N2CCc3ccccc32)cc1C
1990 nM | Cc1ccccc1Nc1nc(N)c2ccccc2n1
2010 nM | COc1ccc(-c2nc(-c3ccc(Br)o3)no2)cc1
1310 nM | O=C(O)c1cccc(N/N=C/c2cccs2)c1
753 nM | CCOC(=O)c1sc(NC(=O)Nc2ccccc2)cc1C
1500 nM | O=C(CCCc1ccccc1)Nc1ccc2c(c1)OCCO2
904 nM | CC(=O)c1cccc(N/C=C\C(=O)c2ccc(C)cc2)c1
217 nM | O=C(Nc1ccc2c(c1)CCC2)c1ccc(F)cc1
1330 nM | O=c1oc2ccccc2cc1-c1nnc(NCc2ccco2)s1
1740 nM | O=C(NC(=S)Nc1ccc2c(c1)OCCO2)c1ccccc1F
1280 nM | CN1/C(=C\C(=O)c2cccs2)Sc2ccccc21
1450 nM | Cc1nc(Nc2ccccc2)sc1-c1ccccc1
1080 nM | O=C(Nc1ncc(Cc2ccccc2)s1)c1cccs1
978 nM | O=C(Nc1ccc(N2CCCCC2)cc1)c1ccccc1
413 nM | O=C(/C=C/Nc1ccccc1F)c1cccs1
935 nM | COc1ccc(-c2csc(N3C(=O)CNC3=S)n2)cc1
956 nM | COc1ccc(C(=O)NCCSc2ccccc2)cc1
1470 nM | O=C(/C=C/Nc1ccccc1C(F)(F)F)c1ccco1

EC50 | SMILES
1060 nM | CC(=O)Nc1ccc2oc(-c3ccccc3Br)nc2c1
1040 nM | NC(=O)c1ccccc1N/C=C/C(=O)c1ccccc1
437 nM | Cc1ccc2nc(-c3ccc(NC(=O)COC(=O)c4ccc([N+](=O)[O-])o4)cc3)sc2c1
946 nM | COC(=O)c1ccc(-c2nc3ccccc3[nH]2)cc1
1890 nM | Cc1ccc(Nc2nc(-c3ccc(O)cc3O)cs2)nc1
277 nM | N/C(=N\N=C\c1ccc2c(c1)OCO2)c1nonc1N
1300 nM | O=C(/C=C/c1ccc(Cl)cc1Cl)Nc1cccc(S(=O)(=O)NC2=NCCC2)c1
1680 nM | CCOc1ccc2nc(NC(=O)Nc3cccs3)sc2c1
660 nM | Cc1ccc2nc(-c3ccc(NC(=O)COC(=O)c4ccc(=O)[nH]c4)cc3)sc2c1
1440 nM | COc1ccc(-n2nc3cc(C)c(N)c(Br)c3n2)cc1
868 nM | c1ccc(-c2cnc(-c3ccccc3)nc2)cc1
682 nM | Nc1cccc(-c2cn3cc(C(F)(F)F)cc(Cl)c3n2)c1
1950 nM | O=C(CSc1cccc[n+]1[O-])c1cc(Cl)ccc1Cl
1130 nM | O=C(Nc1ccc2c(c1)OCO2)c1noc2c1CCCCC2
2200 nM | CC(=Nc1cccc(O)c1)c1sc2ccccc2c1O
1040 nM | COc1ccccc1-c1nc(-c2ccc(Br)o2)no1
389 nM | CC1CCN(c2nc3ccc(C(=O)O)cc3s2)CC1
2170 nM | COc1cccc(/C=N/Nc2nccnc2Cl)c1O
1080 nM | N#CC1(c2ccc(NC(=O)c3ccccc3F)cc2)CCCC1
